# Assay results taken from PMC8757871, “Bridging the Antimicrobial Activity of Two Lactoferricin Derivatives in E. coli and Lipid-Only Membranes” (Frontiers in Medical Technology, 2021).
# What was measured:
# [1] = peptide partitioning from tryptophan fluorescence; type: binding; conditions: for K (mole fraction partitioning coefficient) / RB ([P]B/[L]) / [P]W (peptide concentration in the water phase): Trp emission band analysis, after 1 h incubation, HBS pH 7.4, 37°C
# Procedure: (§1) All hydrated samples were equilibrated for 1 h at 40°C followed by 5 freeze-and-thaw cycles using liquid N2 and intermittent vortex-mixing. Large unilamellar vesicles (LUVs) were obtained by 31 extrusions with a handheld mini extruder (Avanti Polar Lipids, Alabaster, AL) using a 100 nm pore diameter polycarbonate filter. Vesicle size and polydispersity were determined via DLS using a Zetasizer NANO ZSP (Malvern Panalytical, Malvern, UK). ANTS/DPX-containing vesicles were separated from free ANTS/DPX by exclusion chromatography using a column filled with SephadexTM G-75 (Amersham Biosciences, Little Chalfont, UK) fine gel swollen in iso-osmotic HBS. Phospholipid concentrations for all samples were determined by phosphate analysis.
# Fluorescence emission from Trp, present in both peptides, was measured with the Cary Eclipse Fluorescence Spectrophotometer, setting the excitation wavelength to λ= 280 nm, which corresponds to the maximum intensity of the Trp absorption/excitation band. Intensities of exciting and emitting light were adjusted by setting the slit widths of both incident and outgoing beam to 5 or 10 nm, depending on the emission intensity, in order to optimize the signal-to-noise ratio. Emission spectra were background-subtracted to remove contributions originating from the instrument's baseline and scattered light from vesicles. All samples were measured in HBS at 37°C using a quartz cuvette, with a magnetic stirrer to prevent sample sedimentation in the case of aggregation. LUVs ([L] = 100 μM) were mixed with peptides ([P] = 2 and 4 μM), recording fluorescence spectra at various post-mixing time intervals ranging from 0.5 to 60 min. Peptide solutions were measured at concentrations of 2, 3, and 4 μM in order to calibrate their intensity dependence in buffer.
# The fluorescence emission band was fitted with the log-normal-like function ([32], [33]) where λmax and I0 are, respectively, wavelength and intensity of the emission peak; Γ is the full-width-at-half-maximum (FWHM) of the band; α is a skewness parameter (fixed at an optimum values 1.36 after testing); and y = α/(α^2 − 1). Spectra from mixtures of LUVs and peptides were analyzed with a linear combination of two independent bands I^W and I^B, referring to AMPs in bulk (W) and partitioned into the lipid bilayer (B). λ^W and Γ^W were fixed to the reference values obtained by analyzing spectra from pure AMPs. Instead, I0W , I0B , λ^B, and Γ^B were adjustable parameters. The so obtained set of I0W values was converted to the concentration of dissociated peptides [P]W and further analyzed for peptide partitioning as detailed in section 2.3.1.
# Following a previously reported thermodynamic formalism for the partitioning of peptides into lipid bilayers ([37]), based on the free energy of transfer of molecules from water into octanol ([38]), we define the mole fraction partitioning coefficient, K, as […]
# (3) K=[P]B/([P]B+[L])/[P]W/([P]W+[W])≃[P]B[W]/[P]W[L], where [P]B is the molar concentration of peptides partitioned into the lipid phase; [P]W is the peptide concentration in the water phase; and [L] and [W] are, respectively, the molar concentrations of lipids and bulk water (55.5 M at 25°C and 55.3 M at 37°C). The approximation for K (Equation 3) is obtained applying [W] ≫ [PW] and [L] ≫ [PB] (similarly, the concentration of ions in water, i.e., buffer solutions, is negligible compared to [W]). By definition, the total concentration of peptides is [P] = [P]W + [P]B, thus leading to […]
# (§2) (4) [P]=RB[W]/K︸[P]W+RB[L]︸[P]B=RB([W]/K+[L]),
# [2] = ANTS/DPX dye leakage assay and equi-activity partitioning analysis; conditions: for K (mole fraction partitioning coefficient) / RB ([P]B/[L]) / [P]W (peptide concentration in the water phase): fit of Equation (4), [L] = (1−20) mM, [P] = (0.05−2) mM, HBS
# Procedure: as §1
# Dye leakage experiments were performed combining previously reported protocols ([20], [27]). In brief, the dependencies of ANTS/DPX leakage on lipid and peptide concentration were determined by first incubating lipid vesicles ([L] = 1, 4, 10, and 20 mM) with peptides [[P] = (0.025−2) mM] at 37°C for 1 h using a gently rocking shaker (Eppendorf Thermomixer C, Hamburg, Germany). Similar time protocols were applied previously ([27]) and are justified here based on separate time-resolved leakage experiments (Supplementary Figure 3) and Trp-fluorescence measurements (Figure 3), showing that a quasi steady state has been reached after 1 h. Before measurements, lipid/peptide solutions were diluted with HBS to a lipid concentration of 50 μM, and every measurement was repeated at least twice. Vesicle size was checked after each incubation period using DLS. Samples were excited at λ= 360 nm, and the intensity of the fluorescence emission peak at λ= 530 nm, Ip, was recorded with a slit width of 10 nm for both excitation and emission monochromators. Measurements were performed in quartz cuvettes in 2 ml of the iso-osmotic buffer on a Cary Eclipse Fluorescence Spectrophotometer (Varian/Agilent Technologies, Palo Alto, CA). The percentage of leakage, E%, was calculated according to the relation
# (1) E%=Ip-Imin/Imax-Imin,
# where Imin is the initial fluorescence without peptide, and Imax is the fluorescence corresponding to 100% leakage determined through the addition of a 1 vol% solution of Triton X-100. The initial, monotonic increase of E% values with increasing [P] was interpolated with a sigmoidal function. This enabled us to obtain peptide and lipid concentrations leading to a specific E% value, which can in turn be used to calculate the partitioning parameters (see section 2.3.1).
# as §2
# [3] = solubility of the peptide in buffer (stock preparation); type: physicochemical; conditions: PBS / HBS stock solutions; acetic acid up to 0.3% and DMSO up to 3% vol/vol added
# Procedure: Peptide stock solutions of LF11-215 and LF11-324 were prepared in PBS solution for bacteria and HBS solution for lipid vesicles. […] AMP concentrations of the stock solutions were determined by comparing against the absorption band of the aromatic amino acids with the spectrophotometer NanoDrop ND-1000 (Thermo Fisher Scientific, Waltham, MA). Peptide stock solutions were stored in silanized glass tubes until use.
# [4] = POPE/POPG LUVs [L] = 100 μM, [P] = 2 μM
# [5] = POPE/POPG LUVs [L] = 100 μM, [P] = 4 μM
# [6] = POPE/POPG/TOCL LUVs [L] = 100 μM, [P] = 2 μM
# [7] = POPE/POPG/TOCL LUVs [L] = 100 μM, [P] = 4 μM
# [8] = POPG LUVs [L] = 100 μM, [P] = 2 μM
# [9] = POPG LUVs [L] = 100 μM, [P] = 4 μM
# [10] = POPE/POPG LUVs, leakage 10%, 1 h at 37°C
# [11] = POPE/POPG LUVs, leakage 15%, 1 h at 37°C
# [12] = POPE/POPG/TOCL LUVs, leakage 10%, 1 h at 37°C
# [13] = POPE/POPG/TOCL LUVs, leakage 20%, 1 h at 37°C
# [14] = POPE/POPG/TOCL LUVs, leakage 40%, 1 h at 37°C
substance,measurement,setting,value
"H-FWRIRIRR-NH2 [LF11-215, H-FWRIRIRR-NH2]","membrane partitioning, times higher than for LF11-324",[1]; POPE/POPG/TOCL lipid mixtures,~ 1.3 times
same,K (mole fraction partitioning coefficient),[1]; [4],70 ± 4 ×10^4
same,RB ([P]B/[L]),[1]; [4],11.2 ± 0.3 ×10^−3
same,[P]W (peptide concentration in the water phase),[1]; [4],0.88 ± 0.03 µM
same,K (mole fraction partitioning coefficient),[1]; [5],43 ± 3 ×10^4
same,RB ([P]B/[L]),[1]; [5],17.5 ± 0.7 ×10^−3
same,[P]W (peptide concentration in the water phase),[1]; [5],2.25 ± 0.07 µM
same,K (mole fraction partitioning coefficient),[1]; [6],82 ± 4 ×10^4
same,RB ([P]B/[L]),[1]; [6],11.9 ± 0.2 ×10^−3
same,[P]W (peptide concentration in the water phase),[1]; [6],0.81 ± 0.02 µM
same,K (mole fraction partitioning coefficient),[1]; [7],139 ± 6 ×10^4
same,RB ([P]B/[L]),[1]; [7],28.6 ± 0.3 ×10^−3
same,[P]W (peptide concentration in the water phase),[1]; [7],1.14 ± 0.03 µM
same,K (mole fraction partitioning coefficient),[1]; [8],161 ± 6 ×10^4
same,RB ([P]B/[L]),[1]; [8],14.9 ± 0.3 ×10^−3
same,[P]W (peptide concentration in the water phase),[1]; [8],0.513 ± 0.015 µM
same,K (mole fraction partitioning coefficient),[1]; [9],217 ± 8 ×10^4
same,RB ([P]B/[L]),[1]; [9],31.9 ± 0.4 ×10^−3
same,[P]W (peptide concentration in the water phase),[1]; [9],0.81 ± 0.04 µM
same,maximum amount of partitioned AMPs,"[2]; PE-containing systems, [L] ≃20 mM",< 80%
same,"ANTS/DPX dye efflux, time-resolved","[2]; POPE/POPG LUVs [L] = 50 µM, [P] = 0.5 µM, converging after 25 min",~5%
same,K (mole fraction partitioning coefficient),[2]; [10],1.37 ± 0.16 ×10^4
same,RB ([P]B/[L]),[2]; [10],9.8 ± 0.4 ×10^−3
same,[P]W (peptide concentration in the water phase),[2]; [10],0.040 ± 0.006 mM
same,K (mole fraction partitioning coefficient),[2]; [11],0.75 ± 0.15 ×10^4
same,RB ([P]B/[L]),[2]; [11],10.7 ± 1.0 ×10^−3
same,[P]W (peptide concentration in the water phase),[2]; [11],0.08 ± 0.02 mM
same,total ANTS/DPX efflux,"[2]; POPE/POPG vesicles, 1 h at 37°C, all [P] and [L] tested",≤ 40%
same,K (mole fraction partitioning coefficient),[2]; [12],1.7 ± 0.8 ×10^4
same,RB ([P]B/[L]),[2]; [12],5.6 ± 0.7 ×10^−3
same,[P]W (peptide concentration in the water phase),[2]; [12],0.018 ± 0.010 mM
same,K (mole fraction partitioning coefficient),[2]; [13],1.5 ± 0.3 ×10^4
same,RB ([P]B/[L]),[2]; [13],7.2 ± 0.5 ×10^−3
same,[P]W (peptide concentration in the water phase),[2]; [13],0.026 ± 0.007 mM
same,K (mole fraction partitioning coefficient),[2]; [14],1.5 ± 0.4 ×10^4
same,RB ([P]B/[L]),[2]; [14],9.6 ± 0.9 ×10^−3
same,[P]W (peptide concentration in the water phase),[2]; [14],0.036 ± 0.012 mM
"H-PFFWRIRIRR-NH2 [LF11-324, H-PFFWRIRIRR-NH2]",K (mole fraction partitioning coefficient),[1]; [4],67 ± 4 ×10^4
same,RB ([P]B/[L]),[1]; [4],11.0 ± 0.3 ×10^−3
same,[P]W (peptide concentration in the water phase),[1]; [4],0.90 ± 0.02 µM
same,K (mole fraction partitioning coefficient),[1]; [5],47 ± 3 ×10^4
same,RB ([P]B/[L]),[1]; [5],18.4 ± 0.6 ×10^−3
same,[P]W (peptide concentration in the water phase),[1]; [5],2.16 ± 0.06 µM
same,K (mole fraction partitioning coefficient),[1]; [6],63 ± 4 ×10^4
same,RB ([P]B/[L]),[1]; [6],10.6 ± 0.3 ×10^−3
same,[P]W (peptide concentration in the water phase),[1]; [6],0.95 ± 0.03 µM
same,K (mole fraction partitioning coefficient),[1]; [7],111 ± 5 ×10^4
same,RB ([P]B/[L]),[1]; [7],26.7 ± 0.4 ×10^−3
same,[P]W (peptide concentration in the water phase),[1]; [7],1.33 ± 0.04 µM
same,K (mole fraction partitioning coefficient),[1]; [8],61 ± 4 ×10^4
same,RB ([P]B/[L]),[1]; [8],10.5 ± 0.3 ×10^−3
same,[P]W (peptide concentration in the water phase),[1]; [8],0.95 ± 0.03 µM
same,K (mole fraction partitioning coefficient),[1]; [9],20 ± 20 ×10^4
same,RB ([P]B/[L]),[1]; [9],10.7 ± 0.9 ×10^−3
same,[P]W (peptide concentration in the water phase),[1]; [9],2.93 ± 0.09 µM
same,solubility in buffer,[3],weak solubility
